In ChEMBL document CHEMBL5331117, “X-Ray Conformation and Structure-Activity Relationships of MA026, a Reversible Tight Junction Opener” (J Med Chem, 2023):

The compounds below were run on MDCK-II (assay: Induction of claudin-1 mediated tight junction opening in MDCK-II cells assessed as increase in FITC-conjugated dextran incubated for 5 hrs relative to control). Details: Canis lupus familiaris.
Assay type: cell-based
Set-up: concentration or dose not given beside the values

Q: How did the Activity turn out when CCCCCCC[C@@H](O)CC(=O)N[C@@H](CC(C)C)C(=O)N[C@H](CCC(=O)O)C(=O)N[C@H](CCC(N)=O)C(=O)N[C@@H](C(=O)N[C@H](CC(C)C)C(=O)N[C@@H](CCC(N)=O)C(=O)N[C@@H]1COC(=O)[C@H]([C@@H](C)CC)NC(=O)[C@@H](CCC(N)=O)NC(=O)[C@H](C)NC(=O)[C@H](CC(C)C)NC(=O)[C@@H](CCC(N)=O)NC(=O)[C@@H](CC(C)C)NC(=O)[C@@H](C(C)C)NC1=O)C(C)C was run?
A: Its Activity is 9.8%.

Q: For CCCCCCCCCC(=O)N[C@@H](CC(C)C)C(=O)N[C@H](CCC(=O)O)C(=O)N[C@@H](CCC(N)=O)C(=O)N[C@@H](C(=O)N[C@H](CC(C)C)C(=O)N[C@@H](CCC(N)=O)C(=O)N[C@@H]1COC(=O)[C@H]([C@@H](C)CC)NC(=O)[C@@H](CCC(N)=O)NC(=O)[C@H](CC(C)C)NC(=O)[C@H](CC(C)C)NC(=O)[C@@H](CCC(N)=O)NC(=O)[C@@H](CC(C)C)NC(=O)[C@@H](C(C)C)NC1=O)C(C)C, which Activity is on record?
A: Its Activity is 17.6%.

Q: Which Activity does the source give for CCCCCCC[C@@H](O)CC(=O)N[C@@H](CC(C)C)C(=O)N[C@H](C)C(=O)N[C@H](CCC(N)=O)C(=O)N[C@@H](C(=O)N[C@H](CC(C)C)C(=O)N[C@@H](CCC(N)=O)C(=O)N[C@@H]1COC(=O)[C@H]([C@@H](C)CC)NC(=O)[C@@H](CCC(N)=O)NC(=O)[C@H](CC(C)C)NC(=O)[C@H](CC(C)C)NC(=O)[C@@H](CCC(N)=O)NC(=O)[C@@H](CC(C)C)NC(=O)[C@@H](C(C)C)NC1=O)C(C)C here?
A: Its Activity is 30.7%.

Q: With CCCCCCCCCC(=O)N[C@@H](CC(C)C)C(=O)N[C@H](CCC(=O)O)C(=O)N[C@H](CCC(N)=O)C(=O)N[C@@H](C(=O)N[C@H](CC(C)C)C(=O)N[C@H](CCC(N)=O)C(=O)N[C@@H]1COC(=O)[C@H]([C@@H](C)CC)NC(=O)[C@@H](CCC(N)=O)NC(=O)[C@H](CC(C)C)NC(=O)[C@H](CC(C)C)NC(=O)[C@@H](CCC(N)=O)NC(=O)[C@@H](CC(C)C)NC(=O)[C@@H](C(C)C)NC1=O)C(C)C as the compound, how does the Activity read?
A: Its Activity is 0.8%.

Q: CC[C@H](C)[C@@H]1NC(=O)[C@@H](CCC(N)=O)NC(=O)[C@H](CC(C)C)NC(=O)[C@H](CC(C)C)NC(=O)[C@@H](CCC(N)=O)NC(=O)[C@@H](CC(C)C)NC(=O)[C@@H](C(C)C)NC(=O)[C@H](NC(=O)[C@H](CCC(N)=O)NC(=O)[C@@H](CC(C)C)NC(=O)[C@H](NC(=O)[C@@H](CCC(N)=O)NC(=O)[C@@H](CCC(=O)O)NC(=O)[C@H](CC(C)C)NC(=O)CCCC(C)C)C(C)C)COC1=O was tested. Which Activity did it give?
A: Its Activity is 2.6%.

Q: CCCCCCC[C@@H](O)CC(=O)N[C@@H](CC(C)C)C(=O)N[C@H](CCC(=O)O)C(=O)N[C@H](CCC(N)=O)C(=O)N[C@@H](C(=O)N[C@H](CC(C)C)C(=O)N[C@@H](CCC(N)=O)C(=O)N[C@@H]1COC(=O)[C@H]([C@@H](C)CC)NC(=O)[C@@H](CCC(N)=O)NC(=O)[C@H](CC(C)C)NC(=O)[C@H](C)NC(=O)[C@@H](CCC(N)=O)NC(=O)[C@@H](CC(C)C)NC(=O)[C@@H](C(C)C)NC1=O)C(C)C was tested. Which Activity did it give?
A: Its Activity is 12.7%.

Q: Which Activity does the source give for CCCCCCC[C@@H](O)CC(=O)N[C@@H](CC(C)C)C(=O)N[C@H](CCC(=O)O)C(=O)N[C@H](CCC(N)=O)C(=O)N[C@@H](C(=O)N[C@H](C)C(=O)N[C@@H](CCC(N)=O)C(=O)N[C@@H]1COC(=O)[C@H]([C@@H](C)CC)NC(=O)[C@@H](CCC(N)=O)NC(=O)[C@H](CC(C)C)NC(=O)[C@H](CC(C)C)NC(=O)[C@@H](CCC(N)=O)NC(=O)[C@@H](CC(C)C)NC(=O)[C@@H](C(C)C)NC1=O)C(C)C here?
A: Its Activity is 9.2%.

Q: Which Activity does the source give for CC[C@H](C)[C@@H]1NC(=O)[C@@H](CCC(N)=O)NC(=O)[C@H](CC(C)C)NC(=O)[C@H](CC(C)C)NC(=O)[C@@H](CCC(N)=O)NC(=O)[C@@H](CC(C)C)NC(=O)[C@@H](C(C)C)NC(=O)[C@H](NC(=O)[C@H](CCC(N)=O)NC(=O)[C@@H](CC(C)C)NC(=O)[C@H](NC(=O)[C@@H](CCC(N)=O)NC(=O)[C@@H](CCC(=O)O)NC(=O)[C@H](CC(C)C)NC(=O)CCC2CCCCC2)C(C)C)COC1=O here?
A: Its Activity is 18.7%.

Q: How did the Activity turn out when CC[C@H](C)[C@@H]1NC(=O)[C@@H](CCC(N)=O)NC(=O)[C@H](CC(C)C)NC(=O)[C@H](CC(C)C)NC(=O)[C@@H](CCC(N)=O)NC(=O)[C@@H](CC(C)C)NC(=O)[C@@H](C(C)C)NC(=O)[C@H](NC(=O)[C@H](CCC(N)=O)NC(=O)[C@@H](CC(C)C)NC(=O)[C@H](NC(=O)[C@@H](CCC(N)=O)NC(=O)[C@@H](CCC(=O)O)NC(=O)[C@H](CC(C)C)NC(C)=O)C(C)C)COC1=O was run?
A: The Activity was -2.8%.

Q: How did the Activity turn out when CCCCCCCCCC(=O)N[C@@H](CC(C)C)C(=O)N[C@H](CCC(=O)O)C(=O)N[C@H](CCC(N)=O)C(=O)N[C@@H](C(=O)N[C@H](CC(C)C)C(=O)N[C@@H](CCC(N)=O)C(=O)N[C@@H]1COC(=O)[C@H]([C@@H](C)CC)NC(=O)[C@@H](CCC(N)=O)NC(=O)[C@@H](CC(C)C)NC(=O)[C@H](CC(C)C)NC(=O)[C@@H](CCC(N)=O)NC(=O)[C@@H](CC(C)C)NC(=O)[C@@H](C(C)C)NC1=O)C(C)C was run?
A: Its Activity is -2.3%.

Q: Which Activity does the source give for CCCCCCCCCCCCC(=O)N[C@@H](CC(C)C)C(=O)N[C@H](CCC(=O)O)C(=O)N[C@H](CCC(N)=O)C(=O)N[C@@H](C(=O)N[C@H](CC(C)C)C(=O)N[C@@H](CCC(N)=O)C(=O)N[C@@H]1COC(=O)[C@H]([C@@H](C)CC)NC(=O)[C@@H](CCC(N)=O)NC(=O)[C@H](CC(C)C)NC(=O)[C@H](CC(C)C)NC(=O)[C@@H](CCC(N)=O)NC(=O)[C@@H](CC(C)C)NC(=O)[C@@H](C(C)C)NC1=O)C(C)C here?
A: The Activity was 33.3%.

Q: Which Activity does the source give for CCCC(=O)N[C@@H](CC(C)C)C(=O)N[C@H](CCC(=O)O)C(=O)N[C@H](CCC(N)=O)C(=O)N[C@@H](C(=O)N[C@H](CC(C)C)C(=O)N[C@@H](CCC(N)=O)C(=O)N[C@@H]1COC(=O)[C@H]([C@@H](C)CC)NC(=O)[C@@H](CCC(N)=O)NC(=O)[C@H](CC(C)C)NC(=O)[C@H](CC(C)C)NC(=O)[C@@H](CCC(N)=O)NC(=O)[C@@H](CC(C)C)NC(=O)[C@@H](C(C)C)NC1=O)C(C)C here?
A: Its Activity is -1%.

Q: CCCCCCC[C@@H](O)CC(=O)N[C@@H](CC(C)C)C(=O)N[C@H](CCC(=O)O)C(=O)N[C@H](CCC(N)=O)C(=O)N[C@@H](C(=O)N[C@H](CC(C)C)C(=O)N[C@@H](CCC(N)=O)C(=O)N[C@@H]1COC(=O)[C@H]([C@@H](C)CC)NC(=O)[C@@H](CCC(N)=O)NC(=O)[C@H](CC(C)C)NC(=O)[C@H](CC(C)C)NC(=O)[C@@H](CCC(N)=O)NC(=O)[C@@H](C)NC(=O)[C@@H](C(C)C)NC1=O)C(C)C was tested. Which Activity did it give?
A: Its Activity is 10.9%.

Q: Which Activity does the source give for CCCCCCC[C@@H](O)CC(=O)N[C@@H](CC(C)C)C(=O)N[C@H](CCC(=O)O)C(=O)N[C@H](C)C(=O)N[C@@H](C(=O)N[C@H](CC(C)C)C(=O)N[C@@H](CCC(N)=O)C(=O)N[C@@H]1COC(=O)[C@H]([C@@H](C)CC)NC(=O)[C@@H](CCC(N)=O)NC(=O)[C@H](CC(C)C)NC(=O)[C@H](CC(C)C)NC(=O)[C@@H](CCC(N)=O)NC(=O)[C@@H](CC(C)C)NC(=O)[C@@H](C(C)C)NC1=O)C(C)C here?
A: The Activity was 32%.

Same assay, conditions: Canis lupus familiaris, filed as opener

Q: How did the Activity turn out when CCCCCCCCCC(=O)N[C@@H](CC(C)C)C(=O)N[C@H](CCC(=O)O)C(=O)N[C@H](CCC(N)=O)C(=O)N[C@@H](C(=O)N[C@@H](CC(C)C)C(=O)N[C@@H](CCC(N)=O)C(=O)N[C@@H]1COC(=O)[C@H]([C@@H](C)CC)NC(=O)[C@@H](CCC(N)=O)NC(=O)[C@H](CC(C)C)NC(=O)[C@H](CC(C)C)NC(=O)[C@@H](CCC(N)=O)NC(=O)[C@@H](CC(C)C)NC(=O)[C@@H](C(C)C)NC1=O)C(C)C was run?
A: The Activity was 48.8%.

Q: With CCCCCCCCCC(=O)N[C@@H](CC(C)C)C(=O)N[C@H](CCC(=O)O)C(=O)N[C@H](CCC(N)=O)C(=O)N[C@@H](C(=O)N[C@H](CC(C)C)C(=O)N[C@@H](CCC(N)=O)C(=O)N[C@@H]1COC(=O)[C@H]([C@@H](C)CC)NC(=O)[C@H](CCC(N)=O)NC(=O)[C@H](CC(C)C)NC(=O)[C@H](CC(C)C)NC(=O)[C@@H](CCC(N)=O)NC(=O)[C@@H](CC(C)C)NC(=O)[C@@H](C(C)C)NC1=O)C(C)C as the compound, how does the Activity read?
A: Its Activity is 63.3%.

Q: Which Activity does the source give for CCCCCCCCCC(=O)N[C@@H](CC(C)C)C(=O)N[C@H](CCC(=O)O)C(=O)N[C@H](CCC(N)=O)C(=O)N[C@@H](C(=O)N[C@H](CC(C)C)C(=O)N[C@@H](CCC(N)=O)C(=O)N[C@@H]1COC(=O)[C@H]([C@@H](C)CC)NC(=O)[C@@H](CCC(N)=O)NC(=O)[C@H](CC(C)C)NC(=O)[C@H](CC(C)C)NC(=O)[C@H](CCC(N)=O)NC(=O)[C@@H](CC(C)C)NC(=O)[C@@H](C(C)C)NC1=O)C(C)C here?
A: The Activity was 47.6%.

Q: How did the Activity turn out when CCCCCCC[C@@H](O)CC(=O)N[C@@H](CC(C)C)C(=O)N[C@H](CCC(=O)O)C(=O)N[C@H](CCC(N)=O)C(=O)N[C@@H](C(=O)N[C@H](CC(C)C)C(=O)N[C@@H](C)C(=O)N[C@@H]1COC(=O)[C@H]([C@@H](C)CC)NC(=O)[C@@H](CCC(N)=O)NC(=O)[C@H](CC(C)C)NC(=O)[C@H](CC(C)C)NC(=O)[C@@H](CCC(N)=O)NC(=O)[C@@H](CC(C)C)NC(=O)[C@@H](C(C)C)NC1=O)C(C)C was run?
A: Its Activity is 94.8%.

Q: For CCCCCCC[C@@H](O)CC(=O)N[C@@H](CC(C)C)C(=O)N[C@H](CCC(=O)O)C(=O)N[C@H](CCC(N)=O)C(=O)N[C@@H](C(=O)N[C@H](CC(C)C)C(=O)N[C@@H](CCC(N)=O)C(=O)N[C@@H]1COC(=O)[C@H]([C@@H](C)CC)NC(=O)[C@@H](C)NC(=O)[C@H](CC(C)C)NC(=O)[C@H](CC(C)C)NC(=O)[C@@H](CCC(N)=O)NC(=O)[C@@H](CC(C)C)NC(=O)[C@@H](C(C)C)NC1=O)C(C)C, which Activity is on record?
A: The Activity was 122%.

Q: CCCCCCCCCC(=O)N[C@@H](CC(C)C)C(=O)N[C@H](CCC(=O)O)C(=O)N[C@H](CCC(N)=O)C(=O)N[C@@H](C(=O)N[C@H](CC(C)C)C(=O)N[C@@H](CCC(N)=O)C(=O)N[C@@H]1COC(=O)[C@H]([C@@H](C)CC)NC(=O)[C@@H](CCC(N)=O)NC(=O)[C@H](CC(C)C)NC(=O)[C@H](CC(C)C)NC(=O)[C@@H](CCC(N)=O)NC(=O)[C@@H](CC(C)C)NC(=O)[C@@H](C(C)C)NC1=O)C(C)C was tested. Which Activity did it give?
A: The Activity was 174%.

Q: Which Activity does the source give for CCCCCCCCCC(=O)N[C@H](CC(C)C)C(=O)N[C@H](CCC(=O)O)C(=O)N[C@H](CCC(N)=O)C(=O)N[C@@H](C(=O)N[C@H](CC(C)C)C(=O)N[C@@H](CCC(N)=O)C(=O)N[C@@H]1COC(=O)[C@H]([C@@H](C)CC)NC(=O)[C@@H](CCC(N)=O)NC(=O)[C@H](CC(C)C)NC(=O)[C@H](CC(C)C)NC(=O)[C@@H](CCC(N)=O)NC(=O)[C@@H](CC(C)C)NC(=O)[C@@H](C(C)C)NC1=O)C(C)C here?
A: The Activity was 56.8%.
